From US9951028B2, “Agricultural chemicals” (REDAG CROP PROTECTION LTD, priority 2013, dated 2018)

How the values were obtained:
[1] = test system: common chickweed, Stellaria media; experiment: Herbicidal efficacy screen, potter tower spray, necrosis assessed; assay type: in vivo
Description: (§1) Compounds 22, 23 and 24 were screened for herbicidal efficacy against target plants: garden cress, Lepidium sativum, common chickweed, Stellaria media, and white mustard […] alba Plants were obtained as seeds and were grown to the 2-4 true leaf stage. Plants were grown under laboratory conditions, individually in seed trays. Each plant (in an approximately 3 cm diameter plug) was then detached from the tray for spraying. The compounds were screened at a range of five concentrations, diluted in acetone and TweenTM. A carrier only control was also conducted. Treatments were applied directly onto the plants, using a potter tower, at a specified application rate. One plant of each species was sprayed using a potter tower. The 3 different types of plants were placed on a 10 cm diameter platform directly beneath the potter sprayer and sprayed simultaneously. The growth of the plants and any Phytotoxicity effects were then assessed at intervals over 21 days, according to EPPO guideline PP1/135. Five replicas were performed for each treatment, for each species. In the tables below C represents a percentage increase in necrosis relative to the control of 0.1-50; B represents a percentage inhibition of 50-80; and A represents a percentage inhibition of 80-100.

[2] = test system: garden cress, Lepidium sativum; experiment: as above; assay type: in vivo
Description: as §1

[3] = 12.5 g/ha, day 1 post application
[4] = 12.5 g/ha, day 2 post application
[5] = 12.5 g/ha, day 3 post application
[6] = 12.5 g/ha, day 4 post application
[7] = 12.5 g/ha, day 5 post application
[8] = 12.5 g/ha, day 7 post application
[9] = 12.5 g/ha, day 10 post application
[10] = 25 g/ha, day 1 post application
[11] = 25 g/ha, day 2 post application
[12] = 25 g/ha, day 3 post application
[13] = 25 g/ha, day 4 post application
[14] = 25 g/ha, day 5 post application
[15] = 25 g/ha, day 7 post application
[16] = 25 g/ha, day 10 post application
[17] = 50 g/ha, day 1 post application
[18] = 50 g/ha, day 2 post application
[19] = 50 g/ha, day 3 post application
[20] = 50 g/ha, day 4 post application
[21] = 50 g/ha, day 5 post application
[22] = 50 g/ha, day 7 post application
[23] = 50 g/ha, day 10 post application
[24] = 100 g/ha, day 1 post application
[25] = 100 g/ha, day 2 post application
[26] = 100 g/ha, day 3 post application
[27] = 100 g/ha, day 4 post application
[28] = 100 g/ha, day 5 post application
[29] = 100 g/ha, day 7 post application
[30] = 100 g/ha, day 10 post application
[31] = 200 g/ha, day 1 post application
[32] = 200 g/ha, day 2 post application
[33] = 200 g/ha, day 3 post application
[34] = 200 g/ha, day 4 post application

In the case of `CC(C)N(C)S(=O)(=O)/N=C/c1cc(-n2c(=O)cc(C(F)(F)F)n(C)c2=O)c(F)cc1Cl` [Compound 22, 1-[4-Chloro-2-fluoro-5-[(E)-(isopropyl(methyl)sulfamoyl)iminomethyl]phenyl]-3-methyl-2,6-dioxo-4-(trifluoromethyl)pyrimidine], the Average of necrosis [1, 3] is reported as “C (C represents a percentage increase in necrosis relative to the control of 0.1-50)”, the Average of necrosis [1, 4] is reported as “C (C represents a percentage increase in necrosis relative to the control of 0.1-50)” and the Average of necrosis [1, 5] is reported as “C (C represents a percentage increase in necrosis relative to the control of 0.1-50)”. For the same compound, the Average of necrosis [1, 6] was “C (C represents a percentage increase in necrosis relative to the control of 0.1-50)”, the Average of necrosis [1, 7] was “B (B represents a percentage inhibition of 50-80)” and the Average of necrosis [1, 8] was “B (B represents a percentage inhibition of 50-80)”. The Average of necrosis [1, 9] was “B (B represents a percentage inhibition of 50-80)”, the Average of necrosis [1, 10] was “C (C represents a percentage increase in necrosis relative to the control of 0.1-50)” and the Average of necrosis [1, 11] was “C (C represents a percentage increase in necrosis relative to the control of 0.1-50)”. For the same compound, the Average of necrosis [1, 12] was “C (C represents a percentage increase in necrosis relative to the control of 0.1-50)”, the Average of necrosis [1, 13] was “C (C represents a percentage increase in necrosis relative to the control of 0.1-50)” and the Average of necrosis [1, 14] was “A (A represents a percentage inhibition of 80-100)”. The Average of necrosis [1, 15] was “A (A represents a percentage inhibition of 80-100)”, the Average of necrosis [1, 16] was “A (A represents a percentage inhibition of 80-100)” and the Average of necrosis [1, 17] was “C (C represents a percentage increase in necrosis relative to the control of 0.1-50)”. For the same compound, the Average of necrosis [1, 18] was “C (C represents a percentage increase in necrosis relative to the control of 0.1-50)”, the Average of necrosis [1, 19] was “C (C represents a percentage increase in necrosis relative to the control of 0.1-50)” and the Average of necrosis [1, 20] was “B (B represents a percentage inhibition of 50-80)”. The Average of necrosis [1, 21] was “B (B represents a percentage inhibition of 50-80)”, the Average of necrosis [1, 22] was “B (B represents a percentage inhibition of 50-80)” and the Average of necrosis [1, 23] was “A (A represents a percentage inhibition of 80-100)”. For the same compound, the Average of necrosis [1, 24] was “C (C represents a percentage increase in necrosis relative to the control of 0.1-50)”, the Average of necrosis [1, 25] was “C (C represents a percentage increase in necrosis relative to the control of 0.1-50)” and the Average of necrosis [1, 26] was “C (C represents a percentage increase in necrosis relative to the control of 0.1-50)”. For the same compound, the Average of necrosis [1, 27] was “B (B represents a percentage inhibition of 50-80)”, the Average of necrosis [1, 28] was “A (A represents a percentage inhibition of 80-100)” and the Average of necrosis [1, 29] was “A (A represents a percentage inhibition of 80-100)”. The Average of necrosis [1, 30] was “A (A represents a percentage inhibition of 80-100)”, the Average of necrosis [1, 31] was “C (C represents a percentage increase in necrosis relative to the control of 0.1-50)” and the Average of necrosis [1, 32] was “C (C represents a percentage increase in necrosis relative to the control of 0.1-50)”. For the same compound, the Average of necrosis [1, 33] was “C (C represents a percentage increase in necrosis relative to the control of 0.1-50)”, the Average of necrosis [1, 34] was “B (B represents a percentage inhibition of 50-80)” and the Average of necrosis ([1]; 200 g/ha, day 5 post application) was “A (A represents a percentage inhibition of 80-100)”. The Average of necrosis ([1]; 200 g/ha, day 7 post application) was “A (A represents a percentage inhibition of 80-100)”, the Average of necrosis ([1]; 200 g/ha, day 10 post application) was “A (A represents a percentage inhibition of 80-100)” and the Average of necrosis [2, 3] was “C (C represents a percentage increase in necrosis relative to the control of 0.1-50)”. For the same compound, the Average of necrosis [2, 4] was “C (C represents a percentage increase in necrosis relative to the control of 0.1-50)”, the Average of necrosis [2, 5] was “C (C represents a percentage increase in necrosis relative to the control of 0.1-50)” and the Average of necrosis [2, 6] was “C (C represents a percentage increase in necrosis relative to the control of 0.1-50)”. The Average of necrosis [2, 7] was “C (C represents a percentage increase in necrosis relative to the control of 0.1-50)”, the Average of necrosis [2, 8] was “C (C represents a percentage increase in necrosis relative to the control of 0.1-50)” and the Average of necrosis [2, 9] was “B (B represents a percentage inhibition of 50-80)”. The Average of necrosis [2, 10] was “C (C represents a percentage increase in necrosis relative to the control of 0.1-50)”, the Average of necrosis [2, 11] was “C (C represents a percentage increase in necrosis relative to the control of 0.1-50)” and the Average of necrosis [2, 12] was “C (C represents a percentage increase in necrosis relative to the control of 0.1-50)”. For the same compound, the Average of necrosis [2, 13] was “C (C represents a percentage increase in necrosis relative to the control of 0.1-50)”, the Average of necrosis [2, 14] was “C (C represents a percentage increase in necrosis relative to the control of 0.1-50)” and the Average of necrosis [2, 15] was “C (C represents a percentage increase in necrosis relative to the control of 0.1-50)”. The Average of necrosis [2, 16] was “A (A represents a percentage inhibition of 80-100)”, the Average of necrosis [2, 17] was “C (C represents a percentage increase in necrosis relative to the control of 0.1-50)” and the Average of necrosis [2, 18] was “C (C represents a percentage increase in necrosis relative to the control of 0.1-50)”. The Average of necrosis [2, 19] was “C (C represents a percentage increase in necrosis relative to the control of 0.1-50)”, the Average of necrosis [2, 20] was “C (C represents a percentage increase in necrosis relative to the control of 0.1-50)” and the Average of necrosis [2, 21] was “B (B represents a percentage inhibition of 50-80)”. The Average of necrosis [2, 22] was “B (B represents a percentage inhibition of 50-80)”, the Average of necrosis [2, 23] was “B (B represents a percentage inhibition of 50-80)” and the Average of necrosis [2, 24] was “C (C represents a percentage increase in necrosis relative to the control of 0.1-50)”. The Average of necrosis [2, 25] was “C (C represents a percentage increase in necrosis relative to the control of 0.1-50)”, the Average of necrosis [2, 26] was “C (C represents a percentage increase in necrosis relative to the control of 0.1-50)” and the Average of necrosis [2, 27] was “C (C represents a percentage increase in necrosis relative to the control of 0.1-50)”. For the same compound, the Average of necrosis [2, 28] was “B (B represents a percentage inhibition of 50-80)”, the Average of necrosis [2, 29] was “B (B represents a percentage inhibition of 50-80)” and the Average of necrosis [2, 30] was “B (B represents a percentage inhibition of 50-80)”. For the same compound, the Average of necrosis [2, 31] was “C (C represents a percentage increase in necrosis relative to the control of 0.1-50)”, the Average of necrosis [2, 32] was “C (C represents a percentage increase in necrosis relative to the control of 0.1-50)” and the Average of necrosis [2, 33] was “C (C represents a percentage increase in necrosis relative to the control of 0.1-50)”. The Average of necrosis [2, 34] was “C (C represents a percentage increase in necrosis relative to the control of 0.1-50)”.
